For 16 molecules, IC50 results are on record in US11613527B2, “Enzyme inhibitors” (KalVista Pharmaceuticals Limited, priority 2019, dated 2023).

Format in all cases: biochemical
The target in assay [1] is Human plasma kallikrein (Homo sapiens (Human), UniProt P03952). Kind of assay: Determination of the IC50 for plasma kallikrein (fluorogenic substrate H-DPro-Phe-Arg-AFC). The conditions noted are these: class symbols A-D, read-out: IC50 (human PKal). Here is the method:
The ability of the compounds of formula (I) to inhibit plasma kallikrein may be determined using the following biological assay:
Determination of the IC50 for Plasma Kallikrein
Plasma kallikrein inhibitory activity in vitro was determined using standard published methods (see e.g. Johansen et al., Int. J. Tiss. Reac. 1986, 8, 185; Shori et al., Biochem. Pharmacol., 1992, 43, 1209; Sturzebecher et al., Biol. Chem. Hoppe-Seyler, 1992, 373, 1025). Human plasma kallikrein (Protogen) was incubated at 25° C. with the fluorogenic substrate H-DPro-Phe-Arg-AFC and various concentrations of the test compound. Residual enzyme activity (initial rate of reaction) was determined by measuring the change in optical absorbance at 410 nm and the IC50 value for the test compound was determined.

Assay [2] deals with Human FXIa (Homo sapiens (Human), UniProt P03951). Kind of assay: Determination of the % inhibition for FXIa (fluorogenic substrate Z-Gly-Pro-Arg-AFC; 40 μM or IC50). Here is the method:
Selected compounds were further screened for inhibitory activity against the related enzyme FXIa. The ability of the compounds of formula (I) to inhibit FXIa may be determined using the following biological assay:
Determination of the % Inhibition for FXIa
FXIa inhibitory activity in vitro was determined using standard published methods (see e.g. Johansen et al., Int. J. Tiss. Reac. 1986, 8, 185; Shori et al., Biochem. Pharmacol., 1992, 43, 1209; Sturzebecher et al., Biol. Chem. Hoppe-Seyler, 1992, 373, 1025). Human FXIa (Enzyme Research Laboratories) was incubated at 25° C. with the fluorogenic substrate Z-Gly-Pro-Arg-AFC and 40 μM of the test compound (or alternatively at various concentrations of the test compound in order to determine IC50). Residual enzyme activity (initial rate of reaction) was determined by measuring the change in optical absorbance at 410 nm and the IC50 value for the test compound was determined.

In assay [3] the target is Human KLK1 (Homo sapiens (Human), UniProt P06870). Kind of assay: Determination of the IC50 for KLK1 (fluorogenic substrate H-DVal-Leu-Arg-AFC). How it is done:
Selected compounds were further screened for inhibitory activity against the related enzyme KLK1. The ability of the compounds of formula (I) to inhibit KLK1 may be determined using the following biological assay:
Determination of the IC50 for KLK1
KLK1 inhibitory activity in vitro was determined using standard published methods (see e.g. Johansen et al., Int. J. Tiss. Reac. 1986, 8, 185; Shori et al., Biochem. Pharmacol., 1992, 43, 1209; Sturzebecher et al., Biol. Chem. Hoppe-Seyler, 1992, 373, 1025). Human KLK1 (Callbiochem) was incubated at 25° C. with the fluorogenic substrate H-DVal-Leu-Arg-AFC and various concentrations of the test compound. Residual enzyme activity (initial rate of reaction) was determined by measuring the change in optical absorbance at 410 nm and the IC50 value for the test compound was determined.

A value given as a limit tells only on which side of the number the result lay.

Chain of Human KLK1 (P06870 25-262): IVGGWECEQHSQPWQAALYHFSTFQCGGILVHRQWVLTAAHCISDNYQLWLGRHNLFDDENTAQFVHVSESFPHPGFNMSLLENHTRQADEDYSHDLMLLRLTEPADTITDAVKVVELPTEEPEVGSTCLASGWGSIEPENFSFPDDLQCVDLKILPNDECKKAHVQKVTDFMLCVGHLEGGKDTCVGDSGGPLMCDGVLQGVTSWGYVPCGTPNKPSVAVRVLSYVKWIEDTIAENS
Chain of Human plasma kallikrein (P03952 391-638): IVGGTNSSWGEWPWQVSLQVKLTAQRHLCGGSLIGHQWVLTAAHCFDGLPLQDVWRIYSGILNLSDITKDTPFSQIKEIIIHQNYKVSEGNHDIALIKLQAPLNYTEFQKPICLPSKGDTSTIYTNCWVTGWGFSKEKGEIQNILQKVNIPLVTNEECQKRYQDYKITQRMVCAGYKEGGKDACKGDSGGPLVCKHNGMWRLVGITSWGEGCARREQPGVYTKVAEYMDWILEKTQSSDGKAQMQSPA
Chain of Human plasma kallikrein (P03952 20-390 partner): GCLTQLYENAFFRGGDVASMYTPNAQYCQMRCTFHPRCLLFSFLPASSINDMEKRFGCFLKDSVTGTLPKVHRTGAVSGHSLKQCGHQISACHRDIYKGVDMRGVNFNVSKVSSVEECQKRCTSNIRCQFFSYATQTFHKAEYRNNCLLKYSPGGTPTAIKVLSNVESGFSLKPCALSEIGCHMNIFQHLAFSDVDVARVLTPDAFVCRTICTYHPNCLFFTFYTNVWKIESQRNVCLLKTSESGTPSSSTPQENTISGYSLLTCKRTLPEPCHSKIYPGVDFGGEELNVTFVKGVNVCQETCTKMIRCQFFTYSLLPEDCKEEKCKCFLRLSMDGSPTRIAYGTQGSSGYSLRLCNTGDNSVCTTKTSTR
Chain of Human FXIa (P03951 388-625): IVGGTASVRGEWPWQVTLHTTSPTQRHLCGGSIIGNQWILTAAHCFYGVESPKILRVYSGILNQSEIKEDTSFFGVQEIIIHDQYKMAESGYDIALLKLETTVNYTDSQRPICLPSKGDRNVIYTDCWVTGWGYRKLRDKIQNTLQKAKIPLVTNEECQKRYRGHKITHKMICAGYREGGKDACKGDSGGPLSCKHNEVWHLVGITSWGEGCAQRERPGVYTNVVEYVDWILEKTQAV
Chain of Human FXIa (P03951 19-387 partner): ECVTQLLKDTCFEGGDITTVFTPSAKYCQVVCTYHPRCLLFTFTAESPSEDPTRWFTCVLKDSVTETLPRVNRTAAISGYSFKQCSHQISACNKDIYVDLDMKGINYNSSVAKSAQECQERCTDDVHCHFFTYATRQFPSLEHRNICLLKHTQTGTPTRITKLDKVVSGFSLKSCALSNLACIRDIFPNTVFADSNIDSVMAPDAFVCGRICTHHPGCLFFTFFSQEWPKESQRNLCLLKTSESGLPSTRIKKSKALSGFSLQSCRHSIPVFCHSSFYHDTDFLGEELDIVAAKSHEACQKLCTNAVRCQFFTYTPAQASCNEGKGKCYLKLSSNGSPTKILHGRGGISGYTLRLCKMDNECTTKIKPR

On to `COc1ccc(-n2cc(C)nn2)c(CNC(=O)c2cnn(Cc3ccc4c(c3)CN(C)CC4)c2)c1F` [Example 3, N-{[2-fluoro-3-methoxy-6-(4-methyl-1,2,3-triazol-1-yl)phenyl]methyl}-1-[(2-methyl-3,4-dihydro-1H-isoquinolin-7-yl)methyl]pyrazole-4-carboxamide], for which the IC50 in assay [1] is under 0.01 µM; in assay [2] it was over 40 µM; in assay [3], over 40 µM.

With `CCc1ncn(-c2ccc(OC)c(F)c2CNC(=O)c2cn(Cc3ccc4c(c3)CN(C)CC4)nc2COC)n1` [Example 6, N-{[6-(3-ethyl-1,2,4-triazol-1-yl)-2-fluoro-3-methoxyphenyl]methyl}-3-(methoxymethyl)-1-[(2-methyl-3,4-dihydro-1H-isoquinolin-7-yl)methyl]pyrazole-4-carboxamide], the results for the concentration for half-maximal inhibition (IC50) in assay [1], in assay [2] and in assay [3] were under 0.01 µM, over 40 µM and over 40 µM, respectively.

For the molecule `COCc1nn(Cc2ccc3c(c2)CN(C)CC3)cc1C(=O)NCc1c(-n2cncn2)ccc(OC)c1F` [Example 7, N-{[2-fluoro-3-methoxy-6-(1,2,4-triazol-1-yl)phenyl]methyl}-3-(methoxymethyl)-1-[(2-methyl-3,4-dihydro-1H-isoquinolin-7-yl)methyl]pyrazole-4-carboxamide], the IC50 was under 0.01 µM in assay [1], over 40 µM in assay [2] and over 40 µM in assay [3].

Turning to `COCc1nn(Cc2ccc3c(c2)CN(C)CC3)cc1C(=O)NCc1c(-n2ccc(C(F)(F)F)n2)ccc(OC)c1F` [Example 8, N-({2-fluoro-3-methoxy-6-[3-(trifluoromethyl)pyrazol-1-yl]phenyl}methyl)-3-(methoxymethyl)-1-[(2-methyl-3,4-dihydro-1H-isoquinolin-7-yl)methyl]pyrazole-4-carboxamide], the concentration for half-maximal inhibition (IC50) in assay [1] is 0.01 to 0.03 µM; in assay [2], over 40 µM; in assay [3], over 40 µM.

Take `COCc1nn(Cc2ccc3c(c2)CN(C)CC3)cc1C(=O)NCc1c(-n2ccc(C3CC3)n2)ccc(OC)c1F` [Example 9, N-{[6-(3-cyclopropylpyrazol-1-yl)-2-fluoro-3-methoxyphenyl]methyl}-3-(methoxymethyl)-1-[(2-methyl-3,4-dihydro-1H-isoquinolin-7-yl)methyl]pyrazole-4-carboxamide]: the 50% inhibitory concentration (IC50) in assay [1] was 0.03 to 0.1 µM; in assay [2], over 40 µM; in assay [3], over 40 µM.

Take `COCc1nn(Cc2ccc3c(c2)CN(C)CC3)cc1C(=O)NCc1c(-n2ncnc2C)ccc(OC)c1F` [Example 12, N-{[2-fluoro-3-methoxy-6-(5-methyl-1,2,4-triazol-1-yl)phenyl]methyl}-3-(methoxymethyl)-1-[(2-methyl-3,4-dihydro-1H-isoquinolin-7-yl)methyl]pyrazole-4-carboxamide]: the IC50 is under 0.01 µM in assay [1], over 40 µM in assay [2] and over 40 µM in assay [3].

For the molecule `COCc1nn(Cc2ccc3c(c2)CN(C2CC2)CC3)cc1C(=O)NCc1c(-n2cc(C)nn2)ccc(OC)c1F` [Example 14, 1-[(2-cyclopropyl-3,4-dihydro-1H-isoquinolin-7-yl)methyl]-N-{[2-fluoro-3-methoxy-6-(4-methyl-1,2,3-triazol-1-yl)phenyl]methyl}-3-(methoxymethyl)pyrazole-4-carboxamide], the figures for the IC50 in assay [1], in assay [2] and in assay [3] were under 0.01 µM, 28.1 µM and over 40 µM, respectively.

Take `CCN1CCc2ccc(Cn3cc(C(=O)NCc4c(-n5cc(C)nn5)ccc(OC)c4F)c(COC)n3)cc2C1` [Example 16, 1-[(2-ethyl-3,4-dihydro-1H-isoquinolin-7-yl)methyl]-N-{[2-fluoro-3-methoxy-6-(4-methyl-1,2,3-triazol-1-yl)phenyl]methyl}-3-(methoxymethyl)pyrazole-4-carboxamide]: the 50% inhibitory concentration (IC50) was under 0.01 µM in assay [1], over 40 µM in assay [2] and over 40 µM in assay [3].

As for `COCc1nn(Cc2ccc3c(c2)CN(C(C)C)CC3)cc1C(=O)NCc1c(-n2cc(C)nn2)ccc(OC)c1F` [Example 17, N-{[2-fluoro-3-methoxy-6-(4-methyl-1,2,3-triazol-1-yl)phenyl]methyl}-1-[(2-isopropyl-3,4-dihydro-1H-isoquinolin-7-yl)methyl]-3-(methoxymethyl)pyrazole-4-carboxamide], the IC50 was under 0.01 µM in assay [1], over 40 µM in assay [2] and over 40 µM in assay [3].

Take `COCc1nn(Cc2ccc3c(c2)CN(C2CCC2)CC3)cc1C(=O)NCc1c(-n2cc(C)nn2)ccc(OC)c1F` [Example 18, 1-((2-cyclobutyl-1,2,3,4-tetrahydroisoquinolin-7-yl)methyl)-N-(2-fluoro-3-methoxy-6-(4-methyl-1H-1,2,3-triazol-1-yl)benzyl)-3-(methoxymethyl)-1H-pyrazole-4-carboxamide]: the IC50 was under 0.01 µM in assay [1], over 40 µM in assay [2] and over 40 µM in assay [3].

Take `COCc1nn(Cc2ccc3c(c2)CN(C2CC2)CC3)cc1C(=O)NCc1c(-n2cnc(C(F)F)n2)ccc(OC)c1F` [Example 19, 1-[(2-cyclopropyl-3,4-dihydro-1H-isoquinolin-7-yl)methyl]-N-({6-[3-(difluoromethyl)-1,2,4-triazol-1-yl]-2-fluoro-3-methoxyphenyl}methyl)-3-(methoxymethyl)pyrazole-4-carboxamide]: the figures for the IC50 in assay [1], in assay [2] and in assay [3] were under 0.01 µM, over 40 µM and over 40 µM, respectively.

Turning to `COc1ccc(-n2cc(C)nn2)c(CNC(=O)c2cn(Cc3ccc4c(c3)CN(C)CC4)nc2C(F)F)c1F` [Example 33, 3-(difluoromethyl)-N-{[2-fluoro-3-methoxy-6-(4-methyl-1,2,3-triazol-1-yl)phenyl]methyl}-1-[(2-methyl-3,4-dihydro-1H-isoquinolin-7-yl)methyl]pyrazole-4-carboxamide], the half-maximal inhibitory concentration (IC50) in assay [1] was under 0.01 µM.

For `COCc1nn(Cc2ccc3c(c2)C(C)(C)NCC3)cc1C(=O)NCc1c(-n2cc(C)nn2)ccc(OC)c1F` [Example 128, 1-[(1,1-dimethyl-3,4-dihydro-2H-isoquinolin-7-yl)methyl]-N-{[2-fluoro-3-methoxy-6-(4-methyl-1,2,3-triazol-1-yl)phenyl]methyl}-3-(methoxymethyl)pyrazole-4-carboxamide], the 50% inhibitory concentration (IC50) in assay [1] was 0.03 to 0.1 µM.

As to `COCc1nn(Cc2ccc3c(c2)C(C)(C)N(C)CC3)cc1C(=O)NCc1c(-n2cc(C)nn2)ccc(OC)c1F` [Example 129, N-{[2-fluoro-3-methoxy-6-(4-methyl-1,2,3-triazol-1-yl)phenyl]methyl}-3-(methoxymethyl)-1-[(1,1,2-trimethyl-3,4-dihydroisoquinolin-7-yl)methyl]pyrazole-4-carboxamide], the IC50 in assay [1] was in the range of 0.01 to 0.03 µM.

Turning to `COCc1nn(Cc2ccc3c(c2)CNCC3(C)C)cc1C(=O)NCc1c(-n2cc(C)nn2)ccc(OC)c1F` [Example 130, 1-[(4,4-dimethyl-2,3-dihydro-1H-isoquinolin-7-yl)methyl]-N-{[2-fluoro-3-methoxy-6-(4-methyl-1,2,3-triazol-1-yl)phenyl]methyl}-3-(methoxymethyl)pyrazole-4-carboxamide], in assay [1], the IC50 lay in the range of 0.01 to 0.03 µM.

Turning to `COc1ccc(-n2cc(C)nn2)c(CNC(=O)c2cn(Cc3ccc4c(n3)CN(C)CC4)nc2C(F)(F)F)c1F` [Example 131, N-{[2-fluoro-3-methoxy-6-(4-methyl-1H-1,2,3-triazol-1-yl)phenyl]methyl}-1-[(7-methyl-5,6,7,8-tetrahydro-1,7-naphthyridin-2-yl)methyl]-3-(trifluoromethyl)-1H-pyrazole-4-carboxamide], the IC50 in assay [1] fell in the range of 0.01 to 0.03 µM.
